In PubChem BioAssay AID192 (DTP/NCI, 2004):
“And” between values parts separate entries of the source, which are not always exact repeats. Equal entries are not always repeated. Toxic doses and inconclusive results are not listed.

Tested on: BDF1 mice, B16 melanoma ip, median survival T/C
Test: NCI In Vivo Anticancer Drug Screen. Data for tumor model B16 Melanoma (intraperitoneal) in B6D2F1 (BDF1) mice
Conditions: endpoint: median survival time, higher = longer survival
How it was run: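 Read-out: survival or tumor size, given as treated/control ratio. Controls received vehicle only; animals bore transplantable tumors.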

[1] = dose: 4.0 mg/kg/injection, schedule: Q01DX009 (ip), vehicle: saline
[2] = dose: 6.25 mg/kg/injection, schedule: Q01DX009 (ip), vehicle: saline
[3] = dose: 25.0 mg/kg/injection, schedule: Q01DX009 (ip), vehicle: saline
[4] = dose: 50.0 mg/kg/injection, schedule: Q01DX009 (ip), vehicle: Klucel (hydroxypropylcellulose) (HPC)
[5] = dose: 100.0 mg/kg/injection, schedule: Q01DX009 (ip), vehicle: Klucel (hydroxypropylcellulose) (HPC)
[6] = dose: 200.0 mg/kg/injection, schedule: Q01DX009 (ip), vehicle: Klucel (hydroxypropylcellulose) (HPC)
[7] = dose: 50.0 mg/kg/injection, schedule: Q01DX009 (ip), vehicle: saline with Tween-80
[8] = dose: 100.0 mg/kg/injection, schedule: Q01DX009 (ip), vehicle: saline with Tween-80
[9] = dose: 200.0 mg/kg/injection, schedule: Q01DX009 (ip), vehicle: saline with Tween-80
[10] = dose: 25.0 mg/kg/injection, schedule: Q01DX009 (ip), vehicle: saline with Tween-80
[11] = dose: 50.0 mg/kg/injection, schedule: Q04DX003 (ip), vehicle: saline with Tween-80
[12] = dose: 100.0 mg/kg/injection, schedule: Q04DX003 (ip), vehicle: saline with Tween-80
[13] = dose: 200.0 mg/kg/injection, schedule: Q04DX003 (ip), vehicle: saline with Tween-80
[14] = dose: 50.0 mg/kg/injection, schedule: Q01DX009 (ip), vehicle: saline
[15] = dose: 100.0 mg/kg/injection, schedule: Q01DX009 (ip), vehicle: saline

SMILES: O=C(O)CCCc1ccc(N(CCCl)CCCl)cc1
- T/C (dose: 0.37 mg/kg/injection, schedule: Q01DX009 (ip), vehicle: Klucel (hydroxypropylcellulose) (HPC)): 100 % of control
- T/C (dose: 0.5 mg/kg/injection, schedule: Q01DX009 (ip), vehicle: Klucel (hydroxypropylcellulose) (HPC)): 93 % of control and 104 % of control
- T/C (dose: 1.0 mg/kg/injection, schedule: Q01DX009 (ip), vehicle: Klucel (hydroxypropylcellulose) (HPC)): 101 % of control and 104 % of control and 117 % of control
- T/C (dose: 1.5 mg/kg/injection, schedule: Q01DX009 (ip), vehicle: Klucel (hydroxypropylcellulose) (HPC)): 88 % of control and 89 % of control
- T/C (dose: 1.88 mg/kg/injection, schedule: Q01DX009 (ip), vehicle: Klucel (hydroxypropylcellulose) (HPC)): 112 % of control
- T/C (dose: 2.0 mg/kg/injection, schedule: Q01DX009 (ip), vehicle: Klucel (hydroxypropylcellulose) (HPC)): 100 % of control and 107 % of control and 109 % of control
- T/C (dose: 2.0 mg/kg/injection, schedule: Q01DX017 (ip), vehicle: saline): 109 % of control
- T/C (dose: 3.0 mg/kg/injection, schedule: Q01DX009 (ip), vehicle: Klucel (hydroxypropylcellulose) (HPC)): 86 % of control and 87 % of control
- T/C (dose: 3.13 mg/kg/injection, schedule: Q01DX009 (ip), vehicle: saline): 100 % of control
- T/C (dose: 3.75 mg/kg/injection, schedule: Q01DX009 (ip), vehicle: Klucel (hydroxypropylcellulose) (HPC)): 110 % of control
- T/C (dose: 4.0 mg/kg/injection, schedule: Q01DX009 (ip), vehicle: Klucel (hydroxypropylcellulose) (HPC)): 108 % of control and 109 % of control and 118 % of control
- T/C [1]: 104 % of control
- T/C (dose: 4.0 mg/kg/injection, schedule: Q01DX017 (ip), vehicle: saline): 121 % of control
- T/C (dose: 6.0 mg/kg/injection, schedule: Q01DX009 (ip), vehicle: Klucel (hydroxypropylcellulose) (HPC)): 89 % of control and 118 % of control
- T/C [2]: 104 % of control
- T/C (dose: 7.5 mg/kg/injection, schedule: Q01DX009 (ip), vehicle: Klucel (hydroxypropylcellulose) (HPC)): 116 % of control
- T/C (dose: 8.0 mg/kg/injection, schedule: Q01DX001 (ip), vehicle: saline): 95 % of control
- T/C (dose: 8.0 mg/kg/injection, schedule: Q01DX009 (ip), vehicle: Klucel (hydroxypropylcellulose) (HPC)): 111 % of control and 120 % of control
- T/C (dose: 8.0 mg/kg/injection, schedule: Q01DX009 (ip), vehicle: saline): 119 % of control
- T/C (dose: 8.0 mg/kg/injection, schedule: Q04DX003 (ip), vehicle: saline): 122 % of control
- T/C (dose: 12.0 mg/kg/injection, schedule: Q01DX009 (ip), vehicle: Klucel (hydroxypropylcellulose) (HPC)): 100 % of control
- T/C (dose: 16.0 mg/kg/injection, schedule: Q01DX001 (ip), vehicle: saline): 118 % of control
- T/C (dose: 16.0 mg/kg/injection, schedule: Q01DX009 (ip), vehicle: saline): 121 % of control
- T/C (dose: 16.0 mg/kg/injection, schedule: Q04DX003 (ip), vehicle: saline): 122 % of control

SMILES: CNC(C)CC1CCCCC1 (centres undefined)
- T/C (dose: 3.12 mg/kg/injection, schedule: Q01DX009 (ip), vehicle: saline): 100 % of control
- T/C [2]: 100 % of control
- T/C (dose: 12.5 mg/kg/injection, schedule: Q01DX009 (ip), vehicle: saline): 100 % of control
- T/C [3]: 95 % of control

SMILES: COc1cc(/C=C2/c3cc(Cl)ccc3-c3c(Cl)cc(Cl)cc32)cc(OC)c1OC
- T/C (dose: 0.2 mg/kg/injection, schedule: Q01DX009 (ip), vehicle: saline with Tween-80): 86 % of control
- T/C (dose: 0.4 mg/kg/injection, schedule: Q01DX009 (ip), vehicle: saline with Tween-80): 86 % of control
- T/C (dose: 0.8 mg/kg/injection, schedule: Q01DX009 (ip), vehicle: saline with Tween-80): 86 % of control

SMILES: Cc1cc2no[n+]([O-])c2cc1C
- T/C [4]: 116 % of control
- T/C [5]: 99 % of control
- T/C [6]: 117 % of control

SMILES: COc1cc2c(ccc3c4cc(OC)c(OC)cc4c[n+](C)c23)cc1O
- T/C [7]: 108 % of control
- T/C [8]: 97 % of control
- T/C [9]: 100 % of control

SMILES: NC(N)=Nc1ccc(C(=O)Nc2ccc([N+](=O)[O-])cc2)cc1
- T/C [4]: 98 % of control
- T/C [5]: 98 % of control
- T/C [6]: 94 % of control

SMILES: C=CCc1ccc(C)c(C)c1O
- T/C (dose: 100.0 mg/kg/injection, schedule: Q04DX003 (sc), vehicle: olive oil, sesame oil, peanut oil): 91 % of control

SMILES: CC(CN=Cc1ccccc1[O-])N=Cc1ccccc1[O-].[O]=[V] (centres undefined)
- T/C (dose: 2.5 mg/kg/injection, schedule: Q01DX009 (ip), vehicle: saline with Tween-80): 90 % of control
- T/C (dose: 5.0 mg/kg/injection, schedule: Q01DX009 (ip), vehicle: saline with Tween-80): 90 % of control
- T/C (dose: 5.0 mg/kg/injection, schedule: Q04DX003 (ip), vehicle: saline with Tween-80): 97 % of control
- T/C (dose: 10.0 mg/kg/injection, schedule: Q04DX003 (ip), vehicle: saline with Tween-80): 92 % of control

SMILES: c1ccc(CSC2=NCCS2)cc1
- T/C [8]: 102 % of control
- T/C [9]: 105 % of control
- T/C (dose: 400.0 mg/kg/injection, schedule: Q01DX009 (ip), vehicle: saline with Tween-80): 97 % of control

SMILES: Cc1nnc(NS(=O)(=O)c2ccc(N=Nc3nc4[nH]c(N)nc(=S)c4[nH]3)cc2)s1
- T/C [10]: 112 % of control
- T/C [7]: 100 % of control
- T/C [8]: 92 % of control

SMILES: Cc1ccc(Cl)cc1NC(=O)CCl
- T/C [10]: 102 % of control
- T/C [7]: 100 % of control
- T/C [8]: 102 % of control

SMILES: CC(C)(C)OC(=O)NC(CCCCNC(=O)C(F)(F)F)C(=O)ON1C(=O)CCC1=O (centres undefined)
- T/C (dose: 25.0 mg/kg/injection, schedule: Q04DX003 (ip), vehicle: saline with Tween-80): 114 % of control
- T/C [11]: 115 % of control
- T/C [12]: 90 % of control

SMILES: CC(=O)CC(=O)Nc1cc(Cl)c(NC(=O)CC(C)=O)cc1Cl
- T/C [12]: 88 % of control
- T/C [13]: 98 % of control

SMILES: CCC(C)C(CO)c1ccccc1 (centres undefined)
- T/C [10]: 102 % of control
- T/C [7]: 99 % of control

SMILES: CC[C@](O)(C(=O)O)c1cc2n(c(=O)c1CO)Cc1cc3ccccc3nc1-2
- T/C (dose: 0.79 mg/kg/injection, schedule: Q01DX009 (ip), vehicle: other): 117 % of control
- T/C (dose: 1.0 mg/kg/injection, schedule: Q01DX009 (ip), vehicle: saline): 115 % of control and 121 % of control
- T/C (dose: 2.0 mg/kg/injection, schedule: Q01DX009 (ip), vehicle: saline): 117 % of control
- T/C [1]: 150 % of control

SMILES: CCOC(=O)Nc1nccs1
- T/C [10]: 97 % of control
- T/C [7]: 89 % of control
- T/C [8]: 89 % of control
- T/C [9]: 89 % of control

SMILES: CCOc1ccc2nc(Cl)sc2c1
- T/C (dose: 100.0 mg/kg/injection, schedule: Q04DX003 (ip), vehicle: Klucel (hydroxypropylcellulose) (HPC)): 105 % of control

SMILES: CCC/C=C/C=C/C1CC(O)C(O)C(=O)C1C=O (centres undefined)
- T/C (dose: 1.6 mg/kg/injection, schedule: Q01DX009 (ip), vehicle: saline with Tween-80): 105 % of control
- T/C (dose: 3.12 mg/kg/injection, schedule: Q01DX009 (ip), vehicle: saline with Tween-80): 104 % of control
- T/C (dose: 6.25 mg/kg/injection, schedule: Q01DX009 (ip), vehicle: saline with Tween-80): 98 % of control
- T/C (dose: 12.5 mg/kg/injection, schedule: Q01DX009 (ip), vehicle: saline with Tween-80): 98 % of control and 100 % of control

SMILES: CCCCCCCCCC(O)CC (centres undefined)
- T/C [5]: 98 % of control
- T/C [6]: 96 % of control
- T/C (dose: 400.0 mg/kg/injection, schedule: Q01DX009 (ip), vehicle: Klucel (hydroxypropylcellulose) (HPC)): 100 % of control

SMILES: NC(=S)N/N=C/c1ccc2c(c1)OCO2
- T/C [11]: 106 % of control
- T/C [12]: 106 % of control
- T/C [13]: 110 % of control

SMILES: C1CCN(CCC2CCNCC2)C1
- T/C [3]: 109 % of control
- T/C [14]: 90 % of control

SMILES: O=C(O)C1CC[N-]CC1.O=C(O)C1CC[N-]CC1.O=C(O)C1CC[N-]CC1.O=C(O)C1CC[N-]CC1.[Cl][Rh][Cl]
- T/C [3]: 104 % of control
- T/C [14]: 94 % of control
- T/C [15]: 102 % of control

SMILES: Cc1ccc(NC(=S)NC(Cc2ccccc2)c2ccccc2)cc1 (centres undefined)
- T/C (dose: 12.5 mg/kg/injection, schedule: Q01DX009 (ip), vehicle: Klucel (hydroxypropylcellulose) (HPC)): 102 % of control
- T/C (dose: 25.0 mg/kg/injection, schedule: Q01DX009 (ip), vehicle: Klucel (hydroxypropylcellulose) (HPC)): 100 % of control
- T/C (dose: 37.5 mg/kg/injection, schedule: Q04DX003 (ip), vehicle: Klucel (hydroxypropylcellulose) (HPC)): 100 % of control
- T/C [4]: 100 % of control
- T/C (dose: 75.0 mg/kg/injection, schedule: Q04DX003 (ip), vehicle: Klucel (hydroxypropylcellulose) (HPC)): 92 % of control
- T/C (dose: 150.0 mg/kg/injection, schedule: Q04DX003 (ip), vehicle: Klucel (hydroxypropylcellulose) (HPC)): 100 % of control

SMILES: CN=C(N)NC
- T/C [14]: 95 % of control
- T/C [15]: 98 % of control
- T/C (dose: 200.0 mg/kg/injection, schedule: Q01DX009 (ip), vehicle: saline): 104 % of control
